Activity calls are given as the source filed them. How the calls were made is not given here.
Biological target: Serine/threonine-protein kinase PLK1 (Homo sapiens) (UniProt P53350)
Test: PLK1 kinase inhibition, dose response, selectivity assay for PKD inhibitor project, biochemical (AID 1383)
Conditions: counterscreen

Sequence of Serine/threonine-protein kinase PLK1 (Homo sapiens) (P53350 whole entry, looked up): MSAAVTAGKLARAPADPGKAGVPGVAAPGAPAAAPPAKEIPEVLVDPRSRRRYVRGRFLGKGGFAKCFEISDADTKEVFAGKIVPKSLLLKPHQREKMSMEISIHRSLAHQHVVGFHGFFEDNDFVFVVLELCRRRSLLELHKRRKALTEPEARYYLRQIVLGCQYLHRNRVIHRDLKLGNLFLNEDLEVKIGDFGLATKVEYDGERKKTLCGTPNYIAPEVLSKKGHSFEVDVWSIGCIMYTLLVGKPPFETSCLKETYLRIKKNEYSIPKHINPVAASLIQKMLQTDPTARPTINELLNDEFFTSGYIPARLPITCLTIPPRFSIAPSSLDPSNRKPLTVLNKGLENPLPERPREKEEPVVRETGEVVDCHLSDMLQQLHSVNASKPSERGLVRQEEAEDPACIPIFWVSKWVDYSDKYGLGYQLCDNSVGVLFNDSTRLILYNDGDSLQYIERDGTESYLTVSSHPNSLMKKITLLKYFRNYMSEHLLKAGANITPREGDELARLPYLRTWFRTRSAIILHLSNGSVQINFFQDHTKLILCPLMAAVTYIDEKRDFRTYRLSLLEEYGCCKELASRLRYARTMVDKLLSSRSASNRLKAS

- IC50: > 50 µM (inactive)
Structure (SMILES): Clc1cncc(Cl)c1N/N=C/c1ccncc1

Source: PubChem BioAssay AID1383 (University of Pittsburgh Molecular Library Screening Center, 2008)
